From patent US6294547A, “Naphthyridine deratives or salts thereof” (Nippon Kayaku Kabushiki Kaisha, priority 1997, dated 2001) come the findings set out here.

Counter-ions that a name gives are not always drawn.

Series [1] relates to NK-2 receptors. The experiment in a line: Inhibitory effect on bronchoconstriction caused by stimulation of NK-2 receptors (Nle10 neurokinin A (4-10)). In kind it is in vivo, Hartley strain male guinea pigs. As to the method: There were used non-treated Hartley strain male guinea pigs and Hartley strain male guinea pigs received to active sensitization by subcutaneous administration of 30 mg/kg of ovalbumin 14 to 21 days before. The guinea pigs were anesthetized with pentobarbital and a tube was inserted into the trachea of each guinea pig. The guinea pigs were subjected to positive pressure respiration by means of an artificial respiratory apparatus at 10 ml/kg and 60 times/minute. The pressure in the edge of the tube in the trachea was measured as an indication of bronchoconstriction. Spontaneous respiration was inhibited by administering succinylcholine. The non-treated guinea pigs were repeatedly and intravenously injected with 2 nmol/kg of Nle10 neurokinin A (4-10), a specific stimulating agent for NK-2 receptors at intervals of 10 minutes. After the bronchoconstriction thus caused became stable, each drug was administered intravenously, orally or in duodenum. Nle10 neurokinin A (4-10) was intravenously injected again 3 minutes after the intravenous administration or 50 minutes after the oral administration or the administration in duodenum. The rate of inhibition by the drug was determined relative to the bronchoconstriction before the drug administration.

Series [2] deals with T1, NK-3 receptors (Cavia porcellus, UniProt P30098).
T1 construct: the ileums were isolated; from tissue; host or cells: isolated ileum of male Hartley guinea pigs
T1 sequence (P30098 1-440): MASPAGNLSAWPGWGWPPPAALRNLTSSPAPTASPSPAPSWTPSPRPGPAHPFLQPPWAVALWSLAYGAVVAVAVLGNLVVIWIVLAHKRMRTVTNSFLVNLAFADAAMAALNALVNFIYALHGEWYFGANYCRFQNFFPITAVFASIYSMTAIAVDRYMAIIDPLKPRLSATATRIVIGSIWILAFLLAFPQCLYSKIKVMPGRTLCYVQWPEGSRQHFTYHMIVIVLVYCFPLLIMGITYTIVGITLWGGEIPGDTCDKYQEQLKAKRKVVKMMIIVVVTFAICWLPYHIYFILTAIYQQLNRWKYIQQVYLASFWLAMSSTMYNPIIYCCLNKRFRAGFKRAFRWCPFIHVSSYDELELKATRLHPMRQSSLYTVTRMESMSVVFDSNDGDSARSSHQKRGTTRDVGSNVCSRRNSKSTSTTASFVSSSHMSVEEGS
The experiment in a line: Antagonism for NK-3 receptors (senktide induced contraction of isolated ileum). In kind it is cell-based, Hartley strain male guinea pigs. As to conditions: guinea pig ileum; senctide 1×10^-9 M; 35 min incubation; read-out: IC50 of a drug on senctide induced contraction. As to the method:
Hartley strain male guinea pigs were killed by a blow on the head and blood-letting, and the ileums were isolated. A specimen of about 3 cm in length was prepared and then suspended at a tension of 0.5 gw in a magunus bath with an internal volume of 15 ml containing Krebs-Henseleit solution of 37° C. while introducing a mixed gas of 95% O2 and 5% CO2 into the bath. As the Krebs-Henseleit solution, that containing atropine (1×10^-6 M) and indomethacin (5×10^-6 M) was used for preventing the participation of intrinsic acetylcholine and prostaglandins. Senctide (1×10^-9 M), a specific stimulating agent for NK-3 receptors was repeatedly allowed to act on the specimen at intervals of 50 minutes. After the percentage of contraction due to senctide became constant, a drug was added to the solution to each of various concentrations, followed by incubation for 35 minutes, and senctide was allowed to act on the specimen again. The rate of inhibition by the drug was determined relative to the percentage of contraction immediately before the addition of the drug, and the 50% inhibitory concentration (IC50) was determined by means of a regression line.

Series [3] relates to bronchoconstriction caused by inhalation of an antigen. The series can be described thus: Inhibitory effect on bronchoconstriction caused by inhalation of antigen (ovalbumin). The format is in vivo, Hartley strain male guinea pigs (active sensitization). As to conditions: 10 μmol/kg oral, 50 min before antigen inhalation; measured 8 min after. The protocol: There were used non-treated Hartley strain male guinea pigs and Hartley strain male guinea pigs received to active sensitization by subcutaneous administration of 30 mg/kg of ovalbumin 14 to 21 days before. The guinea pigs were anesthetized with pentobarbital and a tube was inserted into the trachea of each guinea pig. The guinea pigs were subjected to positive pressure respiration by means of an artificial respiratory apparatus at 10 ml/kg and 60 times/minute. The pressure in the edge of the tube in the trachea was measured as an indication of bronchoconstriction. Spontaneous respiration was inhibited by administering succinylcholine. […] The rate of inhibition by the drug was determined relative to the bronchoconstriction before the drug administration.
To the guinea pigs received to active sensitization, 4.6 μmol/kg of phosphoramidon was intravenously administered, and 15 minutes after the administration, these guinea pigs were allowed to inhale for 2 minutes an aerosol of an antigen ovalbumin solution (2 mg/ml) produced with an ultrasonic nebulizer, to cause bronchoconstriction. […] The inhibition rate of the drug-treated group was determined relative to the bronchoconstriction of the solvent-treated group measured 8 minutes after the antigen inhalation.

Series [4] relates to Mouse. The experiment in a line: Toxic effect on mouse, intravenous. The format is in vivo. The source says:
The toxicity of the compounds of the present invention was investigated.

Series [5] concerns the target T2, NK-2 receptors (Rattus norvegicus, UniProt P16610).
T2 construct: Duodenums isolated from Fischer strain male rats were homogenized; from tissue; host or cells: duodenum membranes of male Fischer rats
T2 sequence (P16610 1-390): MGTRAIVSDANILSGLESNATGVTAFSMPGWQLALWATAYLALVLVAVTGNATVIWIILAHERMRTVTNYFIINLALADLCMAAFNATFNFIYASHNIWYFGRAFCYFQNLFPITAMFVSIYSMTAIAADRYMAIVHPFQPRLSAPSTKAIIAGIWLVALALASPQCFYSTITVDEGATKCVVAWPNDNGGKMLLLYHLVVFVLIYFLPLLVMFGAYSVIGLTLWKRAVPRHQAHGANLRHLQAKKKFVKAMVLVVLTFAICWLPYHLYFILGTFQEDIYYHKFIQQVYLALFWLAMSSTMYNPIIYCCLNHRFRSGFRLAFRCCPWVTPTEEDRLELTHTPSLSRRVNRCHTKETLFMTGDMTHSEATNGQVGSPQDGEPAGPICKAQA
The experiment in a line: Binding to NK-2 receptors (inhibition of radioactive 125I-neurokinin A binding). The format is Fischer strain male rats (duodenum membranes). Conditions: rat duodenum membrane; 125I-neurokinin A 1×10^-9 M; 90 min, room temperature; read-out: IC50 of drugs in binding of radioactive neurokinin A. As to the method:
Duodenums isolated from Fischer strain male rats were homogenized in 50 mM Tris-hydrochloric acid buffer (pH 7.4) containing saccharose (100 mg/ml) and ethylenediaminetetraacetic acid (1 mM), and the resulting homogenate was centrifuged at 48,000 g and 4° C. for 20 minutes. The pellet thus obtained was washed three times with 10 times as much 50 mM Tris-hydrochloric acid buffer (pH 7.4) containing KCl (300 mM) and ethylenediaminetetraacetic acid (10 mM) as the pellet by volume, and the resulting membrane preparation was suspended in 10 times as much 50 mM Tris-hydrochloric acid buffer (pH 7.4) as the membrane preparation by volume and stored at -80° C. until use. The membrane preparation (20 mg/ml) was incubated together with a radioactive ligand ^125 I-neurokinin A (1×10^-9 M) at room temperature for 90 minutes in the presence of each drug or a solvent therefor in 50 mM Tris-hydrochloricacid buffer (pH 7.4) containing bovine serum albumin (10 mg/ml), bacitracin (40 μg/ml), leupeptin (4 μg/ml), chymostatin (50 μg/ml), antipain (1×10^-4 M) and MnCl2 (1 mM). […] Then, radioactivity in the filter was measured with a gamma counter. The 50% inhibitory concentration (IC50) of the drug was determined by means of a regression line by considering radioactivity in the presence of Nle10 neurokinin A (4-10) (3×10^-6 M) to be due to nonspecific binding, and measuring the rate of inhibition of specific binding by the drug by carrying out a control experiment using the solvent alone.

For the compound `CN(CC(CCN1CCc2nc3c(cc2C1)CCCC3)c1ccc(Cl)c(Cl)c1)C(=O)c1ccccc1` (single isomer, unassigned) [Example 25, 2-[(-)-4-(N-benzoyl-N-methyl)amino-3-(3,4-dichlorophenylbutyll-1,2,3,4,6,7,8,9-octahydro-benzo[b][1,6]naphthyridine fumarate], the “Inhibition (rate), stimulation of NK-2 receptors” value in series [1] (1 μmol/kg intravenous, 3 min after administration) was 94.2%; in series [1] (8 μmol/kg oral, 50 min after administration), 67.2%. Besides, the IC50 in series [2] was 180 nM; in series [5] it was 56 nM. Besides, the “Inhibition (rate), inhalation of antigen” value in series [3] turned out to be 54.1%. Also, the Toxicity entry in series [4] (22 μmol/kg intravenous) and in series [4] (65 μmol/kg intravenous) was “None” in each case.
